# Source: the METLIN SMRT retention time set (Domingo-Almenara et al. 2019)
# Assay: gradient 5% acetonitrile 3 min, to 50% in 2 min, to 85% in 15 min, held 3 min, 100 µL/min
# Details: column: Zorbax Extend-C18 2.1 x 50 mm; eluents: water / acetonitrile, 0.1% formic acid
# In short: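 Each retention time is based on an adduct peak selected computationally and verified by manual inspection. Measurements used HPLC–quadrupole time-of-flight mass spectrometry in positive and negative ionization mode on mixtures of ~100 pure standards. Chromatography ran on a Zorbax Extend-C18 column (2.1 × 50 mm, 1.8 μm) at 100 μL/min with water and acetonitrile, each containing 0.1% formic acid, and dead and dwell volumes of 40 μL and 900 μL.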
row,Structure (SMILES),RP-LC retention time [s]
1,COc1ccc(-c2nc(Cc3noc(-c4ccc(C#N)cc4)n3)c(C)o2)cc1,1070
2,O=C(NC1CCCCC1)C1CCCN(c2ncc(-c3ccccc3)cn2)C1 (centres undefined),1070
3,CC(=O)Nc1cccc(C2OC(c3cc(Br)ccc3OC(C)=O)=NN2C(C)=O)c1 (centres undefined),828
4,Cc1ccsc1CN1CCN(c2cnn3cnnc3c2)CC1,547
5,CN1C(=O)c2cc(S(=O)(=O)NCc3ccccc3)ccc2Oc2cccnc21,959
6,CC(NC(=O)c1sc2ncccc2c1-n1cccc1)c1ccc(F)cc1 (centres undefined),1070
7,Cc1ccc(-c2csc(Cc3nc(-c4ccc(C)cc4)no3)n2)cc1,1320
8,CC(=O)Nc1ccc(NC(=O)c2cccc(N3C(=O)NC4CC3(C)Oc3ccccc34)c2)cc1 (centres undefined),702
9,CN(C)C[C@@H]1CN(S(C)(=O)=O)C[C@H]1NC(=O)c1ccsc1,569
10,O=C(Nc1ccsc1-c1nnc(C2CC2)o1)c1cccs1,1160
11,Cc1ccc(C)c(NC(=O)c2cn(-c3ncccc3-c3nc(C4CC4)no3)cn2)c1,973
12,Clc1cc(Br)ccc1-c1ccc(CNCC2CCNCC2)o1,605
13,Cc1[nH]c(C(=O)N2CCCC(C(=O)NCCCc3ccccc3)C2)c(C)c1C(=O)OC(C)C (centres undefined),892
14,COc1ncc(C(=O)NC2CCC(C)CC2)cn1 (centres undefined),748
15,CCc1ccccc1NC(=O)C1CCN(c2nnc3ccccn23)CC1,660
16,CCc1nc2c(=O)n(CC(=O)N3CCCC(C)C3)nc(C)c2s1 (centres undefined),726
17,Cc1cccc(C(=O)Nc2ccc3c(c2)Sc2ncccc2C(=O)N3C)c1,809
18,CSc1ccc(-c2nc3ncccn3c2Nc2ccccc2C)cc1,839
19,Cc1ccc(C2c3cc(OCC(=O)N4CCCC4)ccc3CCN2C(=O)C2CC2)cc1 (centres undefined),824
20,O=C1CN(Cc2ccccc2)C(=O)C(Cc2ccccc2)N1 (centres undefined),656
21,COc1cc(-c2noc(Cn3nc4ccc(-c5ccccc5)nn4c3=O)n2)cc(OC)c1OC,862
22,CSc1ccc(-c2nc3cnccn3c2Nc2cccc(C(=O)NCc3ccco3)c2)cc1,793
23,CC(C)c1ccc(-c2nc(C3CC(=O)N(c4ccc(Cl)cc4)C3)no2)cc1 (centres undefined),1300

row,Structure (SMILES),RP-LC retention time [s]
1,Cn1nc(-c2nnc(-c3ccc(F)cc3)o2)c2c1CCN(S(=O)(=O)c1ccc(C(C)(C)C)cc1)C2,1180
2,Cn1c(=O)c2ccn(CC(=O)N3CCC(Cc4ccccc4)CC3)c2n(C)c1=O,782
3,Cc1nc2nc(-c3ccc(C(C)(C)C)cc3)nn2c(C)c1CC(=O)N(CCO)Cc1ccccc1,982
4,O=C(COc1ccc(F)cc1)NC1(c2nc(-c3ccncc3)no2)CCCCC1,934
5,COc1ccc2c(c1)C1(CCN(C(=O)CC(C)(C)C)C1)C(=O)N2C (centres undefined),782
6,COCCCn1c(=O)c2ccccc2n(Cc2nc(-c3ccc(F)cc3)no2)c1=O,1010
7,C[C@@H](Oc1ccc(S(C)(=O)=O)cc1C(=O)N1CCN(c2ncc(C(F)(F)F)cc2F)CC1)C(F)(F)F,1090
8,Cc1nn(C)c(C)c1CNC(=O)c1cccc2[nH]cc(CN3CCCC3)c12,600
9,COc1ccc(-c2nnc(-c3ccc(C)c(S(=O)(=O)NCc4cccnc4)c3)o2)cc1OC,660
10,Cc1cc(NC(=O)C2CCCN(c3cnc4nccnc4c3)C2)ccc1F (centres undefined),769
11,COc1cccc(CNC2=NCCNC23CCN(S(=O)(=O)c2ccccc2)CC3)c1,678
12,COc1ccc(Cl)cc1NC(=O)Cn1nc2c(N3CCCCCC3)nccn2c1=O,804
13,CCN1CCN(CCNC(=O)C2CCN(c3nccnc3Sc3ccc(C)cc3)CC2)CC1,639
14,CCCN1CCN(c2ccc(-c3nc(-c4ccccc4)no3)cn2)CC1,715
15,O=C(Nc1ccccc1F)C1CCc2nc(N3CCOCC3)ncc2C1 (centres undefined),778
16,Cc1noc(C)c1S(=O)(=O)N1CCC2(CC1)CC(Cc1ccc(F)cc1)CCO2 (centres undefined),1150
17,Cc1nc2ccccc2c(=O)n1Cc1noc(-c2cccc(Cl)c2)n1,913
18,CCCC(=O)NC1CCN(c2ccc(C)c(C)c2)C1=O (centres undefined),736
19,O=C(NC1CC1)c1cccc2c1CCN2C(=O)c1ccc(F)cc1,739
20,Cc1ccc(S(=O)(=O)Nc2ccc(-c3cn4ccc(C)nc4n3)cc2)cc1,646
21,CCc1cc2c(cc1N1CCC(N3CCOCC3)CC1)C(C)(C)c1[nH]c3cc(C#N)ccc3c1C2=O,740
22,O=C(Cn1cnc2c(sc3nc(-c4ccccc4)ccc32)c1=O)NC1CCCC1,906
23,Cc1ccnc(N2CCC(C(=O)N3CCC(C(N)=O)(N4CCCCC4)CC3)CC2)n1,547

row,Structure (SMILES),RP-LC retention time [s]
1,Cn1nc2n(c1=O)CCN(C(=O)C1(c3ccccc3)CCCC1)CC2,736
2,CC1(CNC(=O)c2ccc(Br)cc2)CCOCC1,784
3,Cn1ccc2c(cc(C(=O)NCc3cc(F)cc(F)c3)n2C)c1=O,701
4,CCOC(=O)c1ccc2nc(NC(=O)c3ccn(C)n3)sc2c1,828
5,Cc1cc(C)n(-c2ccc(Nc3ccc(NS(=O)(=O)c4cccc(F)c4)cc3)nn2)n1,817
6,COc1cccc(CNC(=O)C2(C)CCCN(C(=O)Nc3cc(Cl)ccc3C)C2)c1 (centres undefined),982
7,COCC(=O)N1CCC(Oc2nccnc2N(C)C)C1 (centres undefined),598
8,O=c1ccnc(Nc2ccc(Cl)cc2)[nH]1,701
9,O=C(NC1CC1)C1CCN(C(=O)c2ncn3c2COC(c2ccc(Cl)cc2)C3)CC1 (centres undefined),713
10,Nc1nc(SCC(=O)Nc2cccc(-c3nc4ccccc4s3)c2)n[nH]1,667
11,O=C(Cn1c(=O)c2cc(-c3cccs3)nn2c2ncccc21)NCc1ccccc1,830
12,CC1CCN(c2ncc3c(n2)CCC(C(=O)NCc2ccc(OC(C)C)cc2)C3)CC1 (centres undefined),908
13,O=C(NCc1cccc(F)c1)C1CCN(c2cnc(N3CCSCC3)nc2)CC1,793
14,O=C(Cn1nc2c(Oc3cccc(F)c3)nccn2c1=O)Nc1ccc(F)cc1F,835
15,CCOC(=O)Cc1ccc(NC(=O)Nc2cccn3cnnc23)cc1,698
16,CCOc1ccc(C2Cn3nnc(-c4nc(-c5ccccn5)no4)c3CO2)cc1 (centres undefined),921
17,COc1cccc(CNC(=O)Cn2c(=O)cc(-c3nc(C4CC4)no3)c3ccccc32)c1,902
18,O=C(Cn1c(=O)c(CCC(=O)NC2CCCC2)nc2ccccc21)NCc1ccccc1Cl,842
19,CN(Cc1ccsc1)C(=O)Nc1ccc(F)cc1,839
20,CCN1CCCn2cc(S(=O)(=O)Nc3ccccc3F)cc2C1=O,687
21,CCOc1cc2c(cc1OCC)C1C(C(=O)N3CCN(CC)CC3)c3ccccc3C(=O)N1CC2 (centres undefined),638
22,COc1ccc(NC(=O)C2(C)Oc3cccnc3N(C)C2=O)c(OC)c1 (centres undefined),815
23,Cc1ccn2c(NC(=O)c3ccc4ccccc4c3)c(-c3ccc(F)cc3)nc2c1,765

row,Structure (SMILES),RP-LC retention time [s]
1,O=C(NC1CCCCCC1)C1CCCN(S(=O)(=O)c2c[nH]c(C(=O)N3CCCC3)c2)C1 (centres undefined),815
2,O=C(C1CCN(c2cc(N3CCCCC3)ncn2)CC1)N1CCC(N2CCCCC2)CC1,557
3,COc1ccc(NC(=O)C(=O)c2cccn2C)cc1OC,784
4,Cc1cccc(OCC(=O)N2CCCC(c3n[nH]c(C4CC4)n3)C2)c1 (centres undefined),687
5,O=C(Cc1cccs1)N1CCC[C@H]1c1nc(-c2ccccc2)n[nH]1,711
6,CCCN(Cc1ccc(OC)cc1)Cc1cc(=O)n2cc(Cl)ccc2n1,654
7,CCc1noc(NC(C)=O)c1-c1ccc(OC)c(S(=O)(=O)Nc2cc(C)cc(C)c2)c1,852
8,COc1ccccc1C(=O)Nc1c(-c2ccccc2)nc2ccccn12,597
9,CCn1ccc2cc(S(=O)(=O)N3CCC(C(=O)NCc4cccnc4)CC3)ccc21,653
10,CCN1C(=O)COc2ccc(-c3nc(NC(=O)c4ccccc4Cl)sc3C)cc21,1000
11,O=C(NC1CCSC1=O)c1ccc(-n2cccn2)nn1 (centres undefined),657
12,O=c1n(Cc2ccc3c(c2)OCO3)nc2c(S(=O)(=O)N3CCCC3)cccn12,783
13,COC(=O)c1ccc(C(=O)NCCCC(=O)Nc2cccc3cccnc23)cc1,731
14,CCc1nc(-n2cccc2)sc1C(=O)Nc1ccc(C)cc1F,1200
15,O=C(Nc1ccc(N2CCN(C3CCCC3)C2=O)nc1)c1ccccc1F,804
16,O=C(NCc1nc2cccnc2n1Cc1ccc(F)cc1)c1ccc(Br)o1,757
17,CCOc1ccccc1C(=O)N(CC)c1nc(-c2ccc(C)cc2)cs1,1420
18,CC1CN2C=NC(N3CCN(C(=O)c4ccccc4)CC3)=CC2=N1 (centres undefined),580
19,COc1ccc(-c2nc(Cc3noc(-c4cccc(OC)c4)n3)c(C)o2)cc1,1030
20,Cc1nnc(NC(=O)Cc2csc(NC(=O)C3CCCC3)n2)s1,677
